TGI and GI50 data for 15 molecules are collected here from PubChem BioAssay (NCI).

Structures are written as SMILES.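 Dose response: 5 concentrations. Exposure: 48 h. Format: 96-well plates. Endpoint: linear interpolation; highest concentration if not reached. Here, GI50 denotes the concentration required for 50% inhibition of growth. TGI marks complete inhibition of growth.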

Some test systems named below: T-47D breast; SF-295 CNS; 786-0 renal; IGROV1 ovarian; MDA-MB-231 breast; HS 578T breast; NCI-H522 lung; K-562 leukemia; MOLT-4 leukemia; HOP-92 NSCLC; SNB-75 CNS.
Assay in all cases: growth of human tumour cells (NCI), 48 h

Turning to `CN(C1=NCCO1)c1cccc2c1CCCC2`, the TGI in the experiment on T-47D breast is over 10 µM; in the experiment on SF-295 CNS it was over 10 µM; in the experiment on 786-0 renal, over 10 µM; in the experiment on IGROV1 ovarian, 8.35 µM; in the experiment on MDA-MB-231 breast, 5.28 µM; in the experiment on HS 578T breast, over 10 µM. In addition, the TGI in the experiment on NCI-H522 lung, in the experiment on K-562 leukemia and with MOLT-4 leukemia was over 10 µM each time.
Consider `O=C(NCCO)Nc1c(C(F)(F)F)cc(-c2ccccc2)[nH]c1=O`, for which the TGI in the experiment on T-47D breast, in the experiment with SF-295 CNS, with 786-0 renal, in the experiment on IGROV1 ovarian, in the experiment with MDA-MB-231 breast and in the experiment with HOP-92 NSCLC was over 100 µM in each case. The TGI with K-562 leukemia and in the experiment with MOLT-4 leukemia was over 100 µM in each case.
Consider `FC(F)(Sc1ccccc1)c1nc2ccccc2o1`, for which the TGI in the experiment on T-47D breast, with SF-295 CNS, with 786-0 renal, in the experiment on IGROV1 ovarian, in the experiment on MDA-MB-231 breast and in the experiment on NCI-H522 lung was over 100 µM throughout. Moreover, the TGI with HOP-92 NSCLC is over 100 µM; with K-562 leukemia it was over 100 µM; with MOLT-4 leukemia it was 52.2 µM.
Turning to `COc1cccc(N2C(=O)CSC2c2cc(OC)c(OC)c(OC)c2)c1` (configuration not stated), the TGI in the experiment with SF-295 CNS was 97.8 µM; with 786-0 renal it was over 100 µM; in the experiment with IGROV1 ovarian it was over 100 µM; in the experiment on MDA-MB-231 breast, over 100 µM; in the experiment on HS 578T breast it was over 100 µM; with NCI-H522 lung, 90.4 µM. Also, the TGI with HOP-92 NSCLC, in the experiment with K-562 leukemia and with MOLT-4 leukemia was over 100 µM in each case.
As to `NS(=O)(=O)c1ccc(CNc2nc(-c3cccs3)nc3ccc(I)cc23)cc1`, the TGI with T-47D breast came out at 1.81 µM; in the experiment on SF-295 CNS it was 38 µM; in the experiment with 786-0 renal, 37.6 µM; with IGROV1 ovarian, 30.6 µM; in the experiment with SNB-75 CNS, 47.1 µM; with NCI-H522 lung, 28.2 µM. The TGI is 54.4 µM in the experiment on HOP-92 NSCLC, over 100 µM in the experiment with K-562 leukemia and 81.8 µM in the experiment on MOLT-4 leukemia. Moreover, the GI50 in the experiment with K-562 leukemia is 36.7 µM.
Consider `O=C(/C=C/c1ccco1)CC(=O)/C=C/c1ccco1`, for which the TGI in the experiment with T-47D breast was over 31.6 µM; in the experiment with 786-0 renal, 19.2 µM; in the experiment on IGROV1 ovarian, over 31.6 µM; in the experiment with HS 578T breast, 26.8 µM; in the experiment with SNB-75 CNS it was over 31.6 µM; with NCI-H522 lung it was 14.1 µM. Further, the results for the TGI in the experiment with HOP-92 NSCLC, in the experiment on K-562 leukemia and in the experiment with MOLT-4 leukemia were 71.7 µM, 26.7 µM and 23 µM, respectively.
In the case of `O=C1CC2(CCNCC2)C(=O)N1N1CCCC1`, the TGI in the experiment with T-47D breast, in the experiment with SF-295 CNS, with 786-0 renal, with IGROV1 ovarian, with MDA-MB-231 breast and with NCI-H522 lung was over 100 µM each time. Also, the TGI in the experiment with K-562 leukemia and with MOLT-4 leukemia was over 100 µM throughout.
Consider `CC(=O)Oc1ccccc1C(=O)O`, for which the TGI with T-47D breast, with SF-295 CNS, with 786-0 renal, in the experiment on SNB-75 CNS, in the experiment with NCI-H522 lung and in the experiment with K-562 leukemia was over 100 µM throughout. The molecule further registered a TGI in the experiment on MOLT-4 leukemia of over 100 µM.
As for `N/N=C1\CCCc2c1no[n+]2[O-]`, the TGI in the experiment on SF-295 CNS, in the experiment with 786-0 renal, in the experiment with IGROV1 ovarian, in the experiment with MDA-MB-231 breast, with HS 578T breast and with SNB-75 CNS was over 100 µM each time. Further, the TGI in the experiment with NCI-H522 lung, in the experiment with K-562 leukemia and in the experiment on MOLT-4 leukemia was over 100 µM in each case.
On to `CC(C)NC(=O)OCCN=C1c2ccccc2CCc2ccccc21`, for which the TGI with T-47D breast is 66.1 µM; in the experiment with SF-295 CNS, 28.7 µM; with 786-0 renal it was over 100 µM; in the experiment with IGROV1 ovarian, over 100 µM; in the experiment on MDA-MB-231 breast, 66.7 µM; in the experiment with HS 578T breast it was 78.3 µM. The TGI with SNB-75 CNS is over 100 µM; in the experiment on HOP-92 NSCLC, 55 µM; with K-562 leukemia it was 59 µM; in the experiment on MOLT-4 leukemia, 39.7 µM.
On to `CC(=O)OCC1OC(n2c(N)c(C#N)c(-c3ccc(C)cc3)c(C#N)c2=S)C(OC(C)=O)C(OC(C)=O)C1OC(C)=O` (configuration not stated), for which the TGI in the experiment with T-47D breast is 47.8 µM; with SF-295 CNS, 73.8 µM; with 786-0 renal, 29.2 µM; in the experiment on IGROV1 ovarian it was 45.4 µM; in the experiment with MDA-MB-231 breast it was over 100 µM; in the experiment with HS 578T breast it was 38.7 µM. In addition, the TGI was 29.5 µM in the experiment with SNB-75 CNS, 28.5 µM in the experiment with HOP-92 NSCLC and over 100 µM in the experiment on K-562 leukemia.
`CCOC(=O)c1c(-c2ccc(OC)cc2)c(C#N)c(=S)n(C2OC(CO)C(O)C(O)C2O)c1-c1ccccc1` (configuration not stated): the TGI was over 100 µM in the experiment on T-47D breast; over 100 µM in the experiment on SF-295 CNS; over 100 µM with 786-0 renal; over 100 µM in the experiment with IGROV1 ovarian; over 100 µM with MDA-MB-231 breast; 70 µM with HS 578T breast. The TGI in the experiment with SNB-75 CNS is over 100 µM; with HOP-92 NSCLC, 32.8 µM; in the experiment on K-562 leukemia, over 100 µM; with MOLT-4 leukemia, 96.5 µM.
For the molecule `N#CCCN(CCC#N)c1ccc(/C=C2\N=C(c3ccccc3)N(c3ccccn3)C2=O)cc1`, the TGI with T-47D breast, in the experiment on SF-295 CNS, with 786-0 renal, in the experiment with IGROV1 ovarian, with MDA-MB-231 breast and with HS 578T breast was over 100 µM in each case. For the same molecule, the TGI in the experiment with HOP-92 NSCLC, in the experiment with K-562 leukemia and in the experiment with MOLT-4 leukemia was over 100 µM in each case.
In the case of `O=C(OCC1OC(c2nn[nH]n2)C(OC(=O)c2ccccc2)C1OC(=O)c1ccccc1)c1ccccc1` (configuration not stated), the TGI in the experiment on SF-295 CNS, with 786-0 renal, in the experiment on SNB-75 CNS, in the experiment with HOP-92 NSCLC, with K-562 leukemia and in the experiment on MOLT-4 leukemia was over 100 µM each time.
For `c1cncc(-c2ncc3cccnc3n2)c1`, the TGI in the experiment with SF-295 CNS, with 786-0 renal, in the experiment with IGROV1 ovarian, with MDA-MB-231 breast, with HS 578T breast and with SNB-75 CNS was over 100 µM each time. Further, the TGI with NCI-H522 lung, with HOP-92 NSCLC, in the experiment with K-562 leukemia and with MOLT-4 leukemia was over 100 µM in each case.
